Assay results reported in ChEMBL document CHEMBL1146265, “Synthesis and structure-activity studies of antofine analogues as potential anticancer agents” (Bioorg Med Chem Lett, 2007).

Columns and labels:
Assay type in all cases: functional, cell-based
HT-1080 = assay: Cytotoxicity against human HT1080 cells by SRB assay
A549 = assay: Cytotoxicity against human A549 cells by SRB assay
HCT-116 = assay: Cytotoxicity against human HCT116 cells by SRB assay

Row | SMILES | IC50 (HT-1080) | IC50 (A549) | IC50 (HCT-116)
1 | COc1cc2c3c(c4ccc(OC(C)C)cc4c2cc1OC)CN1CCCC1C3 (stereo not given) | 23.6 nM | 40.5 nM | 19.2 nM
2 | COc1ccc2c3c(c4cc(O)c(OC)cc4c2c1)CC1CCCN1C3 (stereo not given) | 72.6 nM | > 100 nM | 68.3 nM
3 | COc1ccc2c3c(c4cc5c(cc4c2c1)OCO5)CC1CCCN1C3 (stereo not given) | 453 nM | 747 nM | 364 nM
4 | COc1cc2c3c(c4ccc(O)cc4c2cc1OC)CN1CCCC1C3 (stereo not given) | 1.1 nM | 1.4 nM | 1.1 nM
5 | COc1cc2c3c(c4ccccc4c2cc1OC)CN1CCCC1C3 (stereo not given) | 59.1 nM | > 100 nM | 49.3 nM
6 | COc1ccc2c3c(c4cc(OC)c(OC(C)C)cc4c2c1)CC1CCCN1C3 (stereo not given) | 37.4 nM | 53.9 nM | 24.7 nM
7 | COc1ccc2c3c(c4cc(OC)c(O)cc4c2c1)CC1CCCN1C3 (stereo not given) | 19.8 nM | 49.8 nM | 21.4 nM
8 | COc1ccc2c3c(c4cc(OC(C)C)c(OC)cc4c2c1)CC1CCCN1C3 (stereo not given) | > 1000 nM | > 1000 nM | 783 nM
9 | COc1ccc2c3c(c4cc(OC)c(OC)cc4c2c1)CC1CCCN1C3 (stereo not drawn) [(+/-)-ANTOFINE] | 27.5 nM | 25.1 nM | 29.4 nM
10 | COc1ccc2c3c(c4cc(OC)c(OC)cc4c2c1)C[C@H]1CCCN1C3 [(-)-ANTOFINE] | 9.6 nM | 10.4 nM | 9.9 nM
